These results are taken from patent US12195482B1 (Arcus Biosciences, Inc., priority 2022, dated 2025).

Bounds are passed on as bounds.

What is called IC50 is the concentration that inhibits the measured activity by half.

This assay has as its target T1, recombinant human MER (Homo sapiens, UniProt Q12866).
T1 construct: purchased Invitrogen
T1 sequence (Q12866 21-999): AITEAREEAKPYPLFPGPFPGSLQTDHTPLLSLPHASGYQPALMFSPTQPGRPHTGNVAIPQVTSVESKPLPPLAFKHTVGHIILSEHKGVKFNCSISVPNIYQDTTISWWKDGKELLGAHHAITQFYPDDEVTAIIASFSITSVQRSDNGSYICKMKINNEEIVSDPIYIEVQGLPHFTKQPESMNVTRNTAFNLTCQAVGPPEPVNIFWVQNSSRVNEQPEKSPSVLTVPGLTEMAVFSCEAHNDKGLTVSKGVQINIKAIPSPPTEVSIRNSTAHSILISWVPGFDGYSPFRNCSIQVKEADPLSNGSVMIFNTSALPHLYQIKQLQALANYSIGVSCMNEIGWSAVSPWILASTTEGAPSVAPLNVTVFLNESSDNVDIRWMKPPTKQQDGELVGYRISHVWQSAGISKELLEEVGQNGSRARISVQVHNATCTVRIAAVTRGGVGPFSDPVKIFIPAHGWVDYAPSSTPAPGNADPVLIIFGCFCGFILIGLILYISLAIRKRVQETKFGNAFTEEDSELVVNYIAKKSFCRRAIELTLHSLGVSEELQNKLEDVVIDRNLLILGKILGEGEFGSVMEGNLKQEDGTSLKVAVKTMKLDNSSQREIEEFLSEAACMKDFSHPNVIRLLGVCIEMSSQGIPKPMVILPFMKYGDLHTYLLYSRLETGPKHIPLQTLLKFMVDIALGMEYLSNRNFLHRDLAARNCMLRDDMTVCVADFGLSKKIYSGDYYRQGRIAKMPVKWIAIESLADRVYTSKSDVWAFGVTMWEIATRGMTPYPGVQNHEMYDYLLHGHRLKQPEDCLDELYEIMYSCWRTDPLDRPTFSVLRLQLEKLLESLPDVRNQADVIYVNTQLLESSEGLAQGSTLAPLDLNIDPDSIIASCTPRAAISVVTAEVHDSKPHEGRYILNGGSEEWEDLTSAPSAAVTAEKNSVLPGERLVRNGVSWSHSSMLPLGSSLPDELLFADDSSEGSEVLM
Briefly: Biochemical potency, HTRF KinEASE-TK kinase assay. The settings on record: 1 nM MER, 700 μM ATP. Summed up: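 Phosphorylation of a biotinylated tyrosine-kinase peptide (800 nM) by AXL (5 nM) or TYRO3/MER (1 nM) is measured at 700 µM ATP after 2 h at room temperature, following 1 h enzyme–compound preincubation. Signal is the time-resolved FRET ratio, converted to percent activity.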
(Time-resolved FRET reads energy transfer from a long-lived donor to a nearby acceptor.)
As to `Cc1ccccc1-c1ccc(-c2c[nH]c3ncc(-c4ccc5c(c4)CC[C@@H](N4C6COCC4C6)CC5)cc23)nc1` [Example 97, 6-[(7S)-2-{3-[5-(2-Methylphenyl)pyridin-2-yl]-1H-pyrrolo[2,3-b]pyridin-5-yl}-6,7,8,9-tetrahydro-5H-benzo[7]annulen-7-yl]-3-oxa-6-azabicyclo[3.1.1]heptane], the half-inhibitory concentration (IC50) was greater than 1000 nM.

`CS(=O)(=O)c1cccnc1-c1ccc(-c2n[nH]c3ncc(-c4ccc5c(c4)CC[C@@H](N4C6COCC4C6)CC5)cc23)cc1` [Example 101, 6-[(7S)-2-{3-[4-(3-Methanesulfonylpyridin-2-yl)phenyl]-1H-pyrazolo[3,4-b]pyridin-5-yl}-6,7,8,9-tetrahydro-5H-benzo[7]annulen-7-yl]-3-oxa-6-azabicyclo[3.1.1]heptane]: the IC50 was in the range of 100 to 1000 nM.

With `Cc1ncc(C)c(-c2ccc(-c3n[nH]c4ncc(-c5ccc6c(c5)CC[C@@H](N5C7COCC5C7)CC6)cc34)cc2)n1` [Example 122, 6-[(7S)-2-{3-[4-(2,5-Dimethylpyrimidin-4-yl)phenyl]-1H-pyrazolo[3,4-b]pyridin-5-yl}-6,7,8,9-tetrahydro-5H-benzo[7]annulen-7-yl]-3-oxa-6-azabicyclo[3.1.1]heptane], the IC50 was in the range of 100 to 1000 nM.
